Source: patent US8212038B2, “Methods and compositions for controlling ectoparasites” (HatchTech Pty Ltd., priority 2003, dated 2012)

Key:
[1] = system: Plutella xylostella eggs (Waite strain); assay: Egg hatch of Plutella xylostella after dipping in inhibitor; settings: for inhibition of egg hatching in Plutella xylostella (in words): 10 and 1 mM; for % Inhibition of egg hatch relative to controls / Number hatched / Number unhatched: Example 13
Protocol: The egg masses were then placed in a humid box at 25 degrees until egg hatch. Control eggs were exposed to absolute methanol as described above. At day 6 post laying the eggs were assessed from the different treatments and the percentage of egg hatch determined relative to the control as shown in Table 9.
Batches of Plutella eggs that were laid on either fine cloth or parafilm were dipped in a specific inhibitor solution for between 2-10 seconds, the excess solution was drained by blotting with dry tissue paper. The egg masses were then placed in a humid box at 25 degrees until egg hatch. Control eggs were exposed to absolute methanol as described above or not treated.
The egg masses were then placed in a humid box at 25 degrees until egg hatch. Control eggs were exposed to absolute ethanol as described above. On day 6 post laying the eggs were assessed from the different treatments and the percentage of egg hatch determined relative to the control.

[2] = system: Helicoverpa armigera eggs (Tatura×Toowoomba strains); assay: Egg hatch of Helicoverpa armigera after exposure to inhibitor; settings: for % Inhibition of egg hatch relative to the control / Number hatched / Number unhatched: Example 15, day 6 post laying
Protocol: Several hundred Helicoverpa armigera eggs (Tatura×Toowoomba strains) were collected, that had been laid on fine mesh cloth over a 24 hour period.
Batches of Helicoverpa eggs were exposed to a specific inhibitor solution for between 2-10 seconds the excess solution drained by blotting with dry tissue paper. The egg masses were then placed in a humid box at 25 degrees until egg hatch. Control eggs were exposed to absolute methanol as described above.

lice eggs = assay: Time course in vitro lice egg hatching assay; format: in vivo, Pediculus humanus humanus
[3] = system: Plutella xylostella eggs (Waite strain); assay: Reversal of ovicidal effect by FeSO4 on Plutella xylostella eggs; format: in vivo
Protocol: (§1) Within 24 hours of collection the following experimental design was chosen. Batches of eggs were exposed to 10 mM 6,69-dimethyl-2,29-dipyridyl for 2 seconds while additional batches of eggs were exposed to the solvent only (Methanol) for 2 seconds. All batches of eggs were allowed to air dry for 20 minutes at room temperature. The eggs were then given a 2 second exposure to FeSO4 at either 10, 5 or 1 mM, air dried and put in the incubator at 24° C. and allowed to hatch over the next 6 days. In addition, a positive control of 10 mM 6,69-dimethyl-2,29-dipyridyl was set up in which eggs were exposed to this compound for 2 seconds, air dried and placed in the incubator.
as §1, with “10 mM 5,59-dimethyl-2,29-dipyridyl for 2” for “10 mM 6,69-dimethyl-2,29-dipyridyl for 2”, “FeSO4 at 10, 5” for “FeSO4 at either 10, 5”, “put in an incubator at” for “put in the incubator at”, “of 10 mM, 5,59-dimethyl-2,29-dipyridyl was set” for “of 10 mM 6,69-dimethyl-2,29-dipyridyl was set”

B. ovis eggs = assay: Egg hatching in Bovicola ovis; format: in vivo; settings: 10 mM
Protocol: B. ovis eggs were collected from the wool of sheep that were infested with this parasite. The eggs were collected using forceps and with the aid of a dissecting microscope and placed in 24 well tissue culture plates in duplicate lots of 10 eggs per replicate. The eggs were then exposed to either methanol alone (control) or the test compounds for either 10 minutes or 1 minute before being removed from the wells and placed into individual glass vials containing a diet at the base of the tube. The tubes were placed in plastic containers containing a salt solution (to keep humidity constant at 68%) and the containers maintained at a temperature 32° C. The eggs were monitored for hatching over the following 12 days and % hatch inhibition determined in comparison to the controls.

[4] = 10 mM followed by 2 second exposure to 1 mM FeSO4
[5] = 10 mM followed by 2 second exposure to 5 mM FeSO4
[6] = 10 mM followed by 2 second exposure to 10 mM FeSO4
[7] = 10 mM followed by 2 second exposure to MEOH
[8] = 10 mM, 2 seconds, (+ve) control, no second exposure

Row | Compound | inhibition of egg hatching in Plutella xylostella (in words) [1] | % Inhibition of egg hatch relative to controls ([1]; eggs laid on cloth, 1 mM) [%] | Number hatched ([1]; eggs laid on cloth, 1 mM) | Number unhatched ([1]; eggs laid on cloth, 1 mM) | % Inhibition of egg hatch relative to controls ([1]; eggs laid on cloth, 10 mM) [%] | Number hatched ([1]; eggs laid on cloth, 10 mM) | Number unhatched ([1]; eggs laid on cloth, 10 mM) | % Inhibition of egg hatch relative to controls ([1]; eggs laid on parafilm, 1 mM) [%] | Number hatched ([1]; eggs laid on parafilm, 1 mM) | % Inhibition of egg hatch relative to controls ([1]; eggs laid on parafilm, 10 mM) [%] | Number hatched ([1]; eggs laid on parafilm, 10 mM) | inhibition of egg hatching of Helicoverpa armigera (in words) ([2]; 10 mM) | % Inhibition of egg hatch relative to the control ([2]; 10 mM) [%] | Number hatched ([2]; 10 mM) | Number unhatched ([2]; 10 mM) | further results
1 | Cc1ccnc(-c2cc(C)ccn2)c1 [4,4′-dimethyl-2,2′-dipyridyl] | significantly inhibit egg hatching | 100 | 0 | 30 | 100 | 0 | 36 | 91 | 10 | 100 | 0 | significant inhibition of egg hatching | 84 | 8 | 43 | inhibition of egg hatching of Helicoverpa armigera (in words) ([2]; 1 mM): significant inhibition of egg hatching; % Inhibition of egg hatch relative to the control ([2]; 1 mM): 66%; Number hatched ([2]; 1 mM): 23; Number unhatched ([2]; 1 mM): 29
2 | c1ccc(-c2ccccn2)nc1 [2,29-dipyridyl] |  |  |  |  |  |  |  |  |  |  |  |  |  |  |  | inhibition of lice egg hatching (in words) (lice eggs; in vivo): completely inhibited; Ph (number of eggs partly hatched) (lice eggs; per replicate, […], concentration not given): 0
3 | Cc1ccc(-c2ccc(C)cn2)nc1 [5,5′-dimethyl-2,2′-dipyridyl] | significantly inhibit egg hatching | 78 | 5 | 22 | 100 | 0 | 21 | 88 | 18 | 100 | 0 | significant inhibition of egg hatching | 100 | 0 | 42 | % Inhibition [3, 4]: 0%; Number hatched [3, 4]: 39; Number unhatched [3, 4]: 0; % Inhibition [3, 5]: 0%; Number hatched [3, 5]: 25; Number unhatched [3, 5]: 0; % Inhibition [3, 6]: 8%; Number hatched [3, 6]: 23; Number unhatched [3, 6]: 2; % Inhibition [3, 7]: 55%; Number hatched [3, 7]: 16; Number unhatched [3, 7]: 19; effect of added Fe (FeSO4) on the ovicidal effect (in words) ([3]; 10 mM inhibitor, then FeSO4 10, 5 or 1 mM): able to reverse the effects; % Inhibition [3, 8]: 100%; Number hatched [3, 8]: 0; Number unhatched [3, 8]: 38; inhibition of egg hatching (in words) (B. ovis eggs; 10 or 1 minute exposure): completely inhibited; % Inhibition (B. ovis eggs; 1 minute exposure): 100%; % Inhibition (B. ovis eggs; 10 minute exposure): 100%
4 | O=C(O)CN(CCN(CC(=O)O)CC(=O)O)CC(=O)O [EDTA, reference compound] |  |  |  |  |  |  |  |  |  |  |  |  |  |  |  | effect on egg hatching (in words) (lice eggs; 100 mM, results not shown): did not appear to have an effect on egg hatching
